No end group written: not given here.
What was measured:
E. coli ATCC 25922 = details: minimal inhibitory concentration, microdilution method
[1] = tested on: methicillin-resistant S. aureus (MRSA) USA300; details: minimal inhibitory concentration, microdilution method
S. aureus USA300 = details: after peptide treatment; cited from earlier work
human HEK293 cells = details: cited from earlier work
human HaCaT cells = details: cited from earlier work

Substance	E. coli (MIC) (E. coli ATCC 25922)	HL50 (human red blood cells)	S. aureus (MIC) [1]	time to entry of non-permeable dye FITC into S. aureus (S. aureus USA300)	cytotoxicity (human HEK293 cells)	cytotoxicity (human HaCaT cells)
RWWLRRIW-NH2 [W1R]	25 µM	>200 µM				
WRWLRRIW-NH2 [W2R]	25 µM	100 µM	6.2 µM			
WWRLRRIW-NH2 [W3R]	25 µM	>200 µM				
WWWLRKIW-NH2 [TetraF2W-RK]				30 s		
WWWLRRIR-NH2 [W8R]	25 µM	>200 µM				
WWWLRRIW-NH2 [WT]	6.2 µM	35 µM	3.1 µM		less cytotoxic	less cytotoxic
WWWLRRRW-NH2 [I7R]	6.2 µM	150 µM	3.1 µM			
WWWRRRIW-NH2 [L4R]	25 µM	>200 µM				

— paper PMC5603908 (Biochemistry, 2017)
